Data: ChEMBL document CHEMBL1140623, “CC chemokine receptor-3 (CCR3) antagonists: improving the selectivity of DPC168 by reducing central ring lipophilicity” (Bioorg Med Chem Lett, 2007)

Tests used:
[1] = in vivo; conditions: cynomolgus monkey
[2] = in vitro; conditions: human, Caco-2
[3] = in vivo; conditions: BALB/c, mouse
[4] = in vitro; conditions: human, liver microsomes
[5] = in vivo; conditions: cynomolgus monkey; remark: listed apart in the source
[6] = in vivo; conditions: chimpanzee
[7] = in vivo; conditions: cynomolgus monkey; remark: listed apart in the source
[8] = in vivo; conditions: BALB/c, mouse; remark: listed apart in the source
[9] = in vivo; conditions: BALB/c, mouse; remark: listed apart in the source
[10] = in vivo; conditions: chimpanzee; remark: listed apart in the source
[11] = in vivo; conditions: chimpanzee; remark: listed apart in the source

- bioavailability [1]: 18%
- Papp [2]: 2.8 ×10⁻⁶ cm/s
- bioavailability [3]: 25%
- CLint scaled [4]: 16 mL/min/kg
- clearance [5]: 14.5 mL/min/kg
- clearance [6]: 21.7 mL/min/kg
- half-life [7]: 5.5 h
- clearance [8]: 41.7 mL/min/kg
- half-life [9]: 1.2 h
- bioavailability [10]: 7%
- half-life [11]: 4.5 h
Structure (SMILES): CC(=O)c1sc(NC(=O)N[C@@H]2CN(C(C)=O)CC[C@H]2CN2CCC[C@@H](Cc3ccc(F)cc3)C2)nc1C
